Results as given in ChEMBL document CHEMBL1149936, “Discovery of selective dopamine D3 ligands: II. 2-[4-[3-(4-aryl-1-piperazinyl)propoxy]phenyl]benzimidazole partial agonists” (Bioorg Med Chem Lett, 1995).
Activity calls are given as the source filed them. No cut-off for these calls is given here.

Legend:
[1] = molecular target: D(3) dopamine receptor (Homo sapiens, UniProt P35462); test: Binding affinity towards cloned human Dopamine D3 receptor in CHO cells using [3H]spiperone as radioligand; type: cell-based
D(3) dopamine receptor, sequence (P35462 whole entry): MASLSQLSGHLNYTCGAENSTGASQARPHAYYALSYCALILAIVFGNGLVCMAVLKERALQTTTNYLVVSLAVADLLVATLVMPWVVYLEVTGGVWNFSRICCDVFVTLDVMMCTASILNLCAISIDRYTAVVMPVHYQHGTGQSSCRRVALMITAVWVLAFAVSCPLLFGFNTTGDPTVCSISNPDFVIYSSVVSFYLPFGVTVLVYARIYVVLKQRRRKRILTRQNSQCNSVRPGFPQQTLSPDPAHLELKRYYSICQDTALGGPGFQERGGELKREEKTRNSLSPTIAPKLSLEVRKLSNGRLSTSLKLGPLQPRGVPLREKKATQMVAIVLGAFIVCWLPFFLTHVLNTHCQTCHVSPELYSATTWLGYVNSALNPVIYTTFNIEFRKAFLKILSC

[2] = molecular target: D(2) dopamine receptor (Homo sapiens, UniProt P14416); test: Binding affinity towards cloned human Dopamine D2 receptor in CHO cells using [3H]spiperone as radioligand; type: cell-based
D(2) dopamine receptor, sequence (P14416 whole entry): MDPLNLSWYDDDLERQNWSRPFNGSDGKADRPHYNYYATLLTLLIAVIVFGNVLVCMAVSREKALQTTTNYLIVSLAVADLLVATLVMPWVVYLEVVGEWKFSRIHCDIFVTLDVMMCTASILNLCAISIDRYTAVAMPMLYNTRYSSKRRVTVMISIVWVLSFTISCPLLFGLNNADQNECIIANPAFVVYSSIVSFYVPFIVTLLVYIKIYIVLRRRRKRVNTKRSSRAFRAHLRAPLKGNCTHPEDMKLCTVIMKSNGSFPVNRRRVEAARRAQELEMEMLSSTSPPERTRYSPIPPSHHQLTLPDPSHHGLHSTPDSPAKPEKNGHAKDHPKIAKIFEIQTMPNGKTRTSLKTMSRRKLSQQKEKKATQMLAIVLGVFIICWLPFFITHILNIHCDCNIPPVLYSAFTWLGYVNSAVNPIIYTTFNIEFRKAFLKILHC

[3] = tested on: Mus musculus; test: Inhibitory effect on exploratory locomotor activity in mice after ip administration; type: functional
[4] = tested on: Rattus norvegicus; test: Inhibitory effect on exploratory locomotor activity in rats at a dose of 30 mg/kg after oral administration; no effect; type: functional, organism-based; design: dose 30 mg/kg
[5] = tested on: Rattus norvegicus; test: Inhibitory effect on exploratory locomotor activity in rats after ip administration; type: functional

Compound | Ki [1] [nM] | Ki [2] [nM] | ED50 [3] [mg/kg] | ED50 [4] | ED50 [5] [mg/kg]
COc1ccccc1N1CCN(CCCOc2ccc(-c3nc4ccccc4[nH]3)cc2)CC1 | 1.7 | 8.8 |  |  | 
CCCSc1ccccc1N1CCN(CCCOc2ccc(-c3nc4ccccc4[nH]3)cc2)CC1 |  | 8 |  |  | 
Clc1ccc(N2CCN(CCCOc3ccc(-c4nc5ccccc5[nH]4)cc3)CC2)cc1 | 27 | 865 |  |  | 
CN1CCN(CCCOc2ccc(-c3nc4ccccc4[nH]3)cc2)CC1 | 2000 | > 3330 |  |  | 
COc1ccc(N2CCN(CCCOc3ccc(-c4nc5ccccc5[nH]4)cc3)CC2)cc1 | 130 | 293 |  |  | 
Clc1cccc(N2CCN(CCCOc3ccc(-c4nc5ccccc5[nH]4)cc3)CC2)c1 | 155 | 1400 |  |  | 

Second part, led by results:

Ki [1] [nM] | Ki [2] [nM] | Compound | ED50 [3] [mg/kg] | ED50 [4] | ED50 [5] [mg/kg]
18 | 126 | Clc1ccccc1N1CCN(CCCOc2ccc(-c3nc4ccccc4[nH]3)cc2)CC1 |  |  | 
1.5 | 406 | c1ccc(N2CCN(CCCOc3ccc(-c4nc5ccccc5[nH]4)cc3)CC2)cc1 | 2.3 | inactive | 7.1
 | 269 | c1cnc(N2CCN(CCCOc3ccc(-c4nc5ccccc5[nH]4)cc3)CC2)nc1 |  |  | 
 | 70 | c1ccc(N2CCN(CCCOc3ccc(-c4nc5ccccc5[nH]4)cc3)CC2)nc1 |  |  | 
